The values below come from US20080318070A1, “Water-Soluble Preflux and Usage of the Same” (SHIKOKU CHEMICALS CORPORATION, priority 2005, published 2008).

A short description of series [1]: Solubilization test of imidazole compounds. To be noted: 0.20 g imidazole compound dissolved in 2.0 g carboxylic acid compound; ion-exchange water added until solution became clouded; larger = better solubilization. The class given is physicochemical. How it is done: Solubilization Test of Imidazole Compounds
After 0.20 g of 2-pheny-(3,4-dichlorophenyl)imidazole was dissolved in 2.0 g of the carboxylic acid compound for use in the invention, there was measured an amount of water required until the solution became clouded when ion-exchange water was added. The larger amount of water is judged to be more excellent in imidazole compound-solubilization performance of the carboxylic acid compound.
It is recognized that a chemical structure wherein an alkoxy group (R^1—O—) and a carboxymethyl group (—CH2COOH) or a carboxyethyl group (—C2H4COOH) is combined via an alkylene ether chain (—CH2CH(R^2)—O—) enhances the imidazole compound-solubilization performance.

The conditions of series [2]: reported; cited from earlier work.

As for `CCCCOCC(=O)O` [2-(n-Butoxy)acetic acid], in series [1], the “Amount of water added” value was 1.0 mL. Still for that read-out and setting: as for `CCCOCC(=O)O` [2-(n-Propoxy)acetic acid], the figure is 2.8 mL; as for `CCOCC(=O)O` [Compound A, 2-Ethoxyacetic acid], 3.3 mL.

For `CCOCCOCCOCC(=O)O` [Compound C, 2-[2-(2-ethoxyethoxy)ethoxy]acetic acid], the “Amount of water added” value in series [1] was 3.6 mL.

As for `CCCOCC(C)OCC(C)OCC(=O)O` (centres unmarked) [Compound F, 2-[2-(2-propoxy-1-methylethoxy)-1-methylethoxy]acetic acid], the “Amount of water added” value in series [1] is 3.0 mL. Same read-out and setting: under `CCCCOCC(C)OCC(C)OCC(C)OCC(=O)O` (centres unmarked) [Compound G, 2-{2-[2-(2-butoxy-1-methylethoxy)-1-methylethoxy]-1-methylethoxy}acetic acid] stands 2.0 mL. Consider `COCC(=O)O` [methoxyacetic acid], for which, in series [2], the “metabolism in the living body” value is “difficult to metabolize in the living body” and the toxic effect result is given as “causing testicular atrophy or teratogenicity”.
